Series [1] deals with Mus musculus. The experiment in a line: Antiinflammatory activity in DSS-induced male C57BL/6 mouse model of inflammatory bowel disease assessed as decrease in p38 phosphorylation level at 50 to 100 microM/Kg by Western blot analysis. The format is functional, organism-based. The note with it: dose 50-100 µM/Kg.
The test system of series [2] is Mus musculus. The series is described as follows: Antiinflammatory activity in DSS-induced male C57BL/6 mouse model assessed as increase in IL-10 level in colon at 50 to 100 microM/Kg. It is filed as functional, organism-based. The note with it: dose 50-100 µM/Kg.
The test system of series [3] is Mus musculus. The experiment in a line: Antiinflammatory activity in DSS-induced male C57BL/6 mouse model of inflammatory bowel disease assessed as amelioration of crypts disruption at 50 to 100 microM/Kg by H and E staining based analysis. As to conditions: dose 50-100 µM/Kg. It is filed as functional, organism-based.
The nature of series [4]: Toxicity in male Kunming mouse assessed as effect on Cl inorganic salt level in serum at 100 to 500 mg/kg/day, po measured after 5 weeks. It is filed as organism-based. The note with it: in vivo, 840 h, dose 100-500 mg/kg/day.
Series [5] has as its system Mus musculus. The experiment in a line: Antiinflammatory activity in DSS-induced male C57BL/6 mouse model of inflammatory bowel disease assessed as reduction of bloody stool at 22.5 to 45 mg/kg/day, po via gavage measured upto 14 days. The format is functional, organism-based. As to conditions: dose 22.5-45 mg/kg/day, time <= 14.0 day.
Series [6] deals with Mus musculus. The experiment in a line: Antiinflammatory activity in DSS-induced male C57BL/6 mouse model of inflammatory bowel disease assessed as increase in colon length at 22.5 mg/kg/day, po via gavage measured upto 14 days relative to control. It is filed as functional. The note with it: time <= 14 day.
Series [7] in a line: Acute toxicity in female Kunming mouse assessed as effect on body weight loss 5 g/Kg, po measured after 5 weeks. It is filed as organism-based. As to conditions: in vivo, 5000 mg/kg, 840 h.
Series [8] is described as follows: Acute toxicity in female Kunming mouse assessed as effect on spleen 5 g/Kg, po measured after 5 weeks. It is filed as organism-based. As to conditions: in vivo, 5000 mg/kg, 840 h.
A short description of series [9]: Toxicity in female Kunming mouse assessed as effect on ALT level in serum at 100 to 500 mg/kg/day, po measured after 5 weeks. It is filed as organism-based. The note with it: in vivo, 840 h, dose 100-500 mg/kg/day.
The nature of series [10]: Toxicity in female Kunming mouse assessed as effect on body weight loss at 100 to 500 mg/kg/day, po measured after 5 weeks. As to conditions: in vivo, 840 h, dose 100-500 mg/kg/day. It is filed as organism-based.
Series [11] is described as follows: Toxicity in female Kunming mouse assessed as effect on ABL level in serum at 100 to 500 mg/kg/day, po measured after 5 weeks. The format is organism-based. The note with it: in vivo, 840 h, dose 100-500 mg/kg/day.
A short description of series [12]: Toxicity in male Kunming mouse assessed as lethal dose administered as po measured after 5 weeks. It is filed as organism-based. As to conditions: in vivo.
Series [13] has as its system Mus musculus. The experiment in a line: Antiinflammatory activity in DSS-induced male C57BL/6 mouse model of inflammatory bowel disease assessed as reduction in diarrhea at 22.5 to 45 mg/kg/day, po via gavage measured upto 14 days. As to conditions: dose 22.5-45 mg/kg/day, time <= 14.0 day. It is filed as functional, organism-based.
Series [14] is described as follows: Toxicity in female Kunming mouse assessed as effect on heart at 100 to 500 mg/kg/day, po measured after 5 weeks by H and E staining based analysis. It is filed as organism-based. As to conditions: in vivo, 840 h, dose 100-500 mg/kg/day.
Series [15] in a line: Acute toxicity in male Kunming mouse assessed as effect on body weight loss 5 g/Kg, po measured after 5 weeks. It is filed as organism-based. The note with it: in vivo, 5000 mg/kg, 840 h.
Series [16] can be described thus: Toxicity in male Kunming mouse assessed as effect on BUN level in serum at 100 to 500 mg/kg/day, po measured after 5 weeks. The format is organism-based. As to conditions: in vivo, 840 h, dose 100-500 mg/kg/day.
A short description of series [17]: Toxicity in male Kunming mouse assessed as effect on Na inorganic salt level in serum at 100 to 500 mg/kg/day, po measured after 5 weeks. It is filed as organism-based. The note with it: in vivo, 840 h, dose 100-500 mg/kg/day.
Series [18] can be described thus: Toxicity in female Kunming mouse assessed as effect on K inorganic salt level in serum at 100 to 500 mg/kg/day, po measured after 5 weeks. The format is organism-based. The note with it: in vivo, 840 h, dose 100-500 mg/kg/day.
Series [19] can be described thus: Toxicity in female Kunming mouse assessed as effect on lung to body weight ratio at 100 to 500 mg/kg/day, po measured after 5 weeks. It is filed as organism-based. As to conditions: in vivo, 840 h, dose 100-500 mg/kg/day.
The nature of series [20]: Toxicity in male Kunming mouse assessed as effect on GGT level in serum at 100 to 500 mg/kg/day, po measured after 5 weeks. The note with it: in vivo, 840 h, dose 100-500 mg/kg/day. It is filed as organism-based.
Series [21] concerns Mus musculus. The experiment in a line: Antiinflammatory activity in DSS-induced male C57BL/6 mouse model of inflammatory bowel disease assessed as amelioration of structural loss of colon at 50 to 100 microM/Kg by H and E staining based analysis. It is filed as functional, organism-based. As to conditions: dose 50-100 µM/Kg.
Series [22] is described as follows: Toxicity in male Kunming mouse assessed as effect on body weight loss at 100 to 500 mg/kg/day, po measured after 5 weeks. It is filed as organism-based. The note with it: in vivo, 840 h, dose 100-500 mg/kg/day.
Series [23] can be described thus: Acute toxicity in female Kunming mouse assessed as effect on kidney 5 g/Kg, po measured after 5 weeks. It is filed as organism-based. As to conditions: in vivo, 5000 mg/kg, 840 h.
A short description of series [24]: Toxicity in male Kunming mouse assessed as effect on kidney at 100 to 500 mg/kg/day, po measured after 5 weeks by H and E staining based analysis. The format is organism-based. As to conditions: in vivo, 840 h, dose 100-500 mg/kg/day.
The subject of series [25] is Mus musculus. The series is described as follows: Antiinflammatory activity in DSS-induced male C57BL/6 mouse model of inflammatory bowel disease assessed as downregulation of MyD88 expression at 50 to 100 microM/Kg by Western blot analysis. The format is functional, organism-based. The note with it: dose 50-100 µM/Kg. In general terms: In western blotting, separated proteins are transferred to a membrane and probed.

The test system of series [26] is Mus musculus. The series is described as follows: Antiinflammatory activity in DSS-induced male C57BL/6 mouse model of inflammatory bowel disease assessed as amelioration of infiltration of inflammatory cells at 50 to 100 microM/Kg by H and E staining based analysis. As to conditions: dose 50-100 µM/Kg. It is filed as functional, organism-based.
For series [27], the system named is Mus musculus. The series is described as follows: Antiinflammatory activity in DSS-induced male C57BL/6 mouse model of inflammatory bowel disease assessed as increase in colon length at 20 mg/kg/day, ip measured after 14 days relative to control. The format is functional. The note with it: time 14 day.
The subject of series [28] is Mus musculus. The series is described as follows: Antiinflammatory activity in DSS-induced male C57BL/6 mouse model assessed as inhibition of IL-6 level in colon at 50 to 200 microM/Kg. It is filed as functional, organism-based. As to conditions: dose 50-200 µM/Kg.
The species named for series [29] is Mus musculus. The series is described as follows: Antiinflammatory activity in DSS-induced male C57BL/6 mouse model of inflammatory bowel disease assessed as reduction in p38 level. It is filed as functional, organism-based.
For series [30], the system named is Mus musculus. The experiment in a line: Antiinflammatory activity in DSS-induced male C57BL/6 mouse model of inflammatory bowel disease assessed as increase in colon length at 30 mg/kg/day, po via gavage measured upto 14 days relative to control. The format is functional. As to conditions: time <= 14 day.
Series [31] deals with Mus musculus. The series is described as follows: Antiinflammatory activity in DSS-induced male C57BL/6 mouse model of inflammatory bowel disease assessed as downregulation of TRAF6 expression at 50 to 200 microM/Kg by Western blot analysis. It is filed as functional, organism-based. As to conditions: dose 50-200 µM/Kg.
In series [32] the test system is Mus musculus. The experiment in a line: Antiinflammatory activity in DSS-induced male C57BL/6 mouse model of inflammatory bowel disease assessed as reduction in weight loss at 15 to 60 mg/kg/day, po via gavage measured upto 14 days. The format is functional, organism-based. As to conditions: dose 15-60 mg/kg/day, time <= 14.0 day.
Series [33] concerns Mus musculus. The series is described as follows: Antiinflammatory activity in DSS-induced male C57BL/6 mouse model of inflammatory bowel disease assessed as upregulation of ZO-1 expression in colon at 50 to 200 microM/Kg by immunohistochemical analysis. It is filed as functional, organism-based. The note with it: dose 50-200 µM/Kg.
For series [34], the system named is Mus musculus. The experiment in a line: Antiinflammatory activity in DSS-induced male C57BL/6 mouse model assessed as inhibition of TNF-alpha level in colon at 50 to 200 microM/Kg. The format is functional, organism-based. The note with it: dose 50-200 µM/Kg.
The test system of series [35] is Mus musculus. The experiment in a line: Antiinflammatory activity in DSS-induced male C57BL/6 mouse model of inflammatory bowel disease assessed as increase in colon length at 40 mg/kg/day, ip measured after 14 days relative to control. The note with it: time 14 day. It is filed as functional.
Series [36] relates to Mus musculus. The experiment in a line: Antiinflammatory activity in DSS-induced male C57BL/6 mouse model of inflammatory bowel disease assessed as recovery from body weight loss at 20 mg/kg/day, ip measured after 14 days relative to control. The note with it: time 14 day. It is filed as functional.

Structures are written as SMILES. Activity calls are given as the source filed them. The calls are words filed in the database; no cut-off is given here.

In general, LD50 refers to the dose expected to kill half of the subjects tested.

With `CC(=O)OC[C@H]1O[C@@H](OC2=C(C)OC(=C(C)C)C2=O)[C@H](OC(C)=O)[C@@H](OC(C)=O)[C@@H]1OC(C)=O`, the outcome with Mus musculus [1], with Mus musculus [2], with Mus musculus [3], in the series with Mus musculus [5], in the series on Mus musculus [13] and in the series on Mus musculus [21] was Active. Further, the outcome in the series with Mus musculus [25] and in the series on Mus musculus [26] was Active. The Activity entry in series [4] is recorded as “Non-toxic”; in the series on Mus musculus [6] it was 45.3%; in [7] it was “Non-toxic”; in series [8] it was “Non-toxic”; in [9], “Non-toxic”; in series [10] it was “Non-toxic”. The Activity result in series [11], in series [14], in series [15], in series [16], in series [17] and in [18] was “Non-toxic” throughout. Besides, the Activity entry in series [19], in series [20], in series [22], in series [23] and in series [24] was “Non-toxic” each time. The LD50 at 840 h in series [12] is greater than 500 mg/kg.

`CC(C)=C1OC(C)=C(O[C@@H]2O[C@H](CO)[C@@H](O)[C@H](O)[C@H]2O)C1=O`: the Activity in the series on Mus musculus [27] was found to be 47.4%; in the series with Mus musculus [30], 65.6%; with Mus musculus [35], 69.4%; with Mus musculus [36] it was 50%. In addition, the result in the series with Mus musculus [28], in the series listed under Mus musculus [29], in the series with Mus musculus [31], in the series with Mus musculus [32], with Mus musculus [33] and with Mus musculus [34] was Active.

For the origin of these results see ChEMBL document CHEMBL6120946, “From Hit to Lead: Discovery of First-In-Class Furanone Glycoside D228 Derived from Chimonanthus salicifolius for the Treatment of Inflammatory Bowel Disease” (J Med Chem, 2024).
